Our source for the inhibition values is article PMC10343501 (Molecules, 2023).

Holding throughout (assay type): cell-based
Common to all, as to settings: read-out: % inhibition at 100 nM

Data set [1] deals with T1, hERG potassium channel (Homo sapiens, UniProt Q12809, Y652A).
T1 construct: gene KCNH2
Put plainly: whole-cell patch clamp, transfected HEK-293 cells, […], RT. For orientation: Patch clamp records ionic current or voltage across a cell membrane.

The target of data set [2] is T2, hERG potassium channel (Homo sapiens, UniProt Q12809).
T2 construct: gene KCNH2
In words: whole-cell patch clamp, HEK-293 cells, […] inhibition at […] (RT), […] (PT).

The target of data set [3] is T3, hERG potassium channel (Homo sapiens, UniProt Q12809, S624A).
T3 construct: gene KCNH2
Put plainly: whole-cell patch clamp, transfected HEK-293 cells, […], RT.

T2 sequence (Q12809 whole entry): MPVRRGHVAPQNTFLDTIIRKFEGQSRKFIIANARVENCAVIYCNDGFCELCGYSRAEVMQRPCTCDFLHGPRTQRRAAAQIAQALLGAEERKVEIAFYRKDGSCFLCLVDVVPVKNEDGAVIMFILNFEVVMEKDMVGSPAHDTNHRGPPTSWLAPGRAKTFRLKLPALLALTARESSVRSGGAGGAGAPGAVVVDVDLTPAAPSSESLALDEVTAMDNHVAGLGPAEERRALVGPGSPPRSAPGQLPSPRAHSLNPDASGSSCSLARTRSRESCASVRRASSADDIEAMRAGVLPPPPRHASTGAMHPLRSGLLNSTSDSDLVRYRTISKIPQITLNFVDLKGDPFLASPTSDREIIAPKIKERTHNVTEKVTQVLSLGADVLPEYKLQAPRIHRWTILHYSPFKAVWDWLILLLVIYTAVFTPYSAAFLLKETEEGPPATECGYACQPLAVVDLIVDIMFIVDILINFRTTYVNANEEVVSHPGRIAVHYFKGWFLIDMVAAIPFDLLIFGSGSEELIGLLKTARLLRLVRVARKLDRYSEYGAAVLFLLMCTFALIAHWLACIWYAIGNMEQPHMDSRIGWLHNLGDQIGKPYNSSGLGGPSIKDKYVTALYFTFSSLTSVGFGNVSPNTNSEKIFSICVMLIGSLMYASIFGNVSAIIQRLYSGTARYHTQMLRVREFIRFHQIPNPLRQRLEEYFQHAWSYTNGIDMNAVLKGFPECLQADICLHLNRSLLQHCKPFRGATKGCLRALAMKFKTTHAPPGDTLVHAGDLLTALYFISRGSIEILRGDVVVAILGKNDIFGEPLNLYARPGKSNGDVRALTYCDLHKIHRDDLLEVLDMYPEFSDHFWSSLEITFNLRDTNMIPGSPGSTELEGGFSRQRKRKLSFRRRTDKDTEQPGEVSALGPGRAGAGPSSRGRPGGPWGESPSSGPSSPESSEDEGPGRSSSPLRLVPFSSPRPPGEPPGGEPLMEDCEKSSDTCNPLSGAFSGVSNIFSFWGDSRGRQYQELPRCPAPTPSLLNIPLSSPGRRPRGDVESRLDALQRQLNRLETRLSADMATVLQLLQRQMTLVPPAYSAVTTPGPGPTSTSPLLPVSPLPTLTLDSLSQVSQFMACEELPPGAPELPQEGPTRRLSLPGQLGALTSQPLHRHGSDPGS
T1 sequence (Q12809 whole entry Y652A): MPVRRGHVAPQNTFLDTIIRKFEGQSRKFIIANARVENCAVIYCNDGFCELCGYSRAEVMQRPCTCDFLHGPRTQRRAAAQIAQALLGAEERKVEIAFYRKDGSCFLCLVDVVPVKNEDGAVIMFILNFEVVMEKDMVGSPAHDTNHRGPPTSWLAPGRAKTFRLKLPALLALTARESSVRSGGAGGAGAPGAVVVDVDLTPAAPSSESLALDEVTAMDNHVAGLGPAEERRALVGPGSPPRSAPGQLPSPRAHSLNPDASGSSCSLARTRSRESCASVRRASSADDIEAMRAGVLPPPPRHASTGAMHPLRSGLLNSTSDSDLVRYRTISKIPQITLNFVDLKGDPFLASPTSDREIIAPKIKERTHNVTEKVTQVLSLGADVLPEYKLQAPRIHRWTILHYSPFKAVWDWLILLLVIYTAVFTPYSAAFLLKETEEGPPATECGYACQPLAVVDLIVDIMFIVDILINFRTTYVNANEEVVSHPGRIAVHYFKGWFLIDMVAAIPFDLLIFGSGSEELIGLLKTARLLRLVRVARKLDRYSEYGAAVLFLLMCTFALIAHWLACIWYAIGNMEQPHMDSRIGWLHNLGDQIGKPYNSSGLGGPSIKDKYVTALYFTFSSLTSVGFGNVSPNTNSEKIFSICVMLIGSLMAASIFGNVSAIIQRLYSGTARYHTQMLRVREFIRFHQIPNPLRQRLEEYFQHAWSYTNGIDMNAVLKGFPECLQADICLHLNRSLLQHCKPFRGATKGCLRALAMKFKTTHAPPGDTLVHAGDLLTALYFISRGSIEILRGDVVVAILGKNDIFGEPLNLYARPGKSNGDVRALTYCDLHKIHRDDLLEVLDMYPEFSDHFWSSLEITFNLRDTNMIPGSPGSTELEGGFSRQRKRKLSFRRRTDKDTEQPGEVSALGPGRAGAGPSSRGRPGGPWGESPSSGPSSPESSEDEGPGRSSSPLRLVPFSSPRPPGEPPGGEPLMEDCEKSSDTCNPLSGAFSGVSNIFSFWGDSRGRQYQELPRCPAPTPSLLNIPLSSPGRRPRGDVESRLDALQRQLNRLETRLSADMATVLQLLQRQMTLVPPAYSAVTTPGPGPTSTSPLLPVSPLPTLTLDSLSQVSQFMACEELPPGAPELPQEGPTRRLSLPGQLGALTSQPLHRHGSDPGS
T3 sequence (Q12809 whole entry S624A): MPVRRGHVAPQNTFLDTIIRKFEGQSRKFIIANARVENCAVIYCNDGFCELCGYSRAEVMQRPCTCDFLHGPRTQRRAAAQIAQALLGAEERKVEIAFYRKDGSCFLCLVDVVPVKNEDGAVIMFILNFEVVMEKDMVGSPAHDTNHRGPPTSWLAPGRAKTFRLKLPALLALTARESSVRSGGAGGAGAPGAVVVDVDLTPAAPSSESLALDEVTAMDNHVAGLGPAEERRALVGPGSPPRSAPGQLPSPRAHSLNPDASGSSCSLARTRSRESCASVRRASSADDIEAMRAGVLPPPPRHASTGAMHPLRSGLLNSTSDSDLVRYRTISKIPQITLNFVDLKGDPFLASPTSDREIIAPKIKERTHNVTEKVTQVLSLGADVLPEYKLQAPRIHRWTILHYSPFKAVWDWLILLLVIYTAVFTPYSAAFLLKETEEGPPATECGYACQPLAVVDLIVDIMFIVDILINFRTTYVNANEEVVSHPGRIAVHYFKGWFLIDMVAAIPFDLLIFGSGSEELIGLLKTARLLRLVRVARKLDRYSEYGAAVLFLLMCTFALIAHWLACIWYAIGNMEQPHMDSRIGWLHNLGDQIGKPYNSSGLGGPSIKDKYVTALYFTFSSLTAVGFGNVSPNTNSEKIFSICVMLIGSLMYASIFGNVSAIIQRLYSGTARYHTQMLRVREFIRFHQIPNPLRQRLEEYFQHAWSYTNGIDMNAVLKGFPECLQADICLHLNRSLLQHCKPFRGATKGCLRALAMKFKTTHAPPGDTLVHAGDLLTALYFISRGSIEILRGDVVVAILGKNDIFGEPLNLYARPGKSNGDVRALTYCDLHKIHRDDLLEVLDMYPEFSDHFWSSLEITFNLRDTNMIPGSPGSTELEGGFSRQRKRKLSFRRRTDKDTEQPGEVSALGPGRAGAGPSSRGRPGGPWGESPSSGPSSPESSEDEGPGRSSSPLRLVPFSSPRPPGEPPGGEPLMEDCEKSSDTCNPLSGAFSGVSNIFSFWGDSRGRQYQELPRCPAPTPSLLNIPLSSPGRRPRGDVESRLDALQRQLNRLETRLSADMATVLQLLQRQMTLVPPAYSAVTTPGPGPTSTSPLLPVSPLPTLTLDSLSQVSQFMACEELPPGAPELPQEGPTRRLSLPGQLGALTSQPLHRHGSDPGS

One may read the inhibition as how much of the control response was suppressed. Consider `COc1cc(N)c(Cl)cc1C(=O)NC1CCN(CCCOc2ccc(F)cc2)CC1OC` (stereo not drawn) [cisapride], for which the inhibition at 0.1 µM at hERG potassium channel [1] was 33.9%; at hERG potassium channel [2], 75.9%; at hERG potassium channel [3], 44%.
